Assay results: patent US11242365B2, “FOXM1-derived peptide, and vaccine including same” (OncoTherapy Science, Inc., priority 2015, dated 2022)
Entries after “also recorded” stand apart in the source; their conditions may differ.

Key:
[1] = tested on: target cells (C1R-A01) pulsed with peptide; assay: IFN-gamma ELISA of CTL lines (HLA-A*01:01); format: cell-based, human; conditions: CTL line against peptide-pulsed C1R-A01; listed as FOXM1-A01-10-566
Method: CTLs were propagated using methods similar to those reported by Riddell et al. (Walter E A et al., N Engl J Med 1995, 333(16): 1038-44; Riddell S R et al., Nat Med 1996, 2(2): 216-23). The CTLs were cultured in 25 ml 5% ABS/AIM-V medium together with two types of Mitomycin C-treated human B lymphoblastoid cell lines (5×10^6 cells/25 ml medium each) and an anti-CD3 antibody (final concentration: 40 ng/ml). On the day after beginning of the culturing, IL-2 (final concentration: 120 IU/ml) was added to the culture. On days 5, 8 and 11, the medium was changed to a 5% ABS/AIM-V medium containing IL-2 (final concentration: 30 IU/ml) (Tanaka H et al., Br J Cancer 2001, 84(1): 94-9; Umano Y et al., Br J Cancer 2001, 84(8): 1052-7; Uchida N et al., Clin Cancer Res 2004, 10(24): 8577-86; Suda T et al., Cancer Sci 2006, 97(5): 411-9; Watanabe T et al., Cancer Sci 2005, 96(8): 498-506).
(§1) Peptide-pulsed C1R-A01 (1×10^4 cells/well) was prepared as the target cell. The IFN-gamma ELISPOT assay and IFN-gamma ELISA were performed according to the assay kit manufacturer's manual.

[2] = tested on: target cells (C1R-A01) pulsed with peptide; assay: IFN-gamma ELISA of CTL clones established by limiting dilution (HLA-A*01:01); format: cell-based, human; conditions: CTL clone against peptide-pulsed C1R-A01; listed as FOXM1-A01-10-566
Method: After induction of CTLs in vitro, the CTLs were seeded onto 96-well round-bottomed microplates (Nalge Nunc International) at 1 cell/well or 10 cells/well. The CTLs were cultured with two types of Mitomycin C-treated human B lymphoblastoid cell lines (1×10^4 cells/well each) in a total of 150 micro-l/well 5% ABS/AIM-V medium with an anti-CD3 antibody (final concentration: 30 ng/ml) and IL-2 (final concentration: 125 IU/ml). Ten days later, 50 micro-l 5% ABS/AIM-V medium containing 500 IU/ml IL-2 was added to the culture.
as §1

[3] = tested on: COS7 cells expressing FOXM1 and HLA-A*01:01; assay: IFN-gamma production of CTL clone against target cells expressing FOXM1 and HLA-A*01:01; format: cell-based, African green monkey
From the text: A cDNA encoding the FOXM1 or HLA-A*01:01 gene was amplified by PCR. The PCR-amplified product was each incorporated into an expression vector. Either or both of the FOXM1 gene-expressing vector and the HLA-A*01:01 gene-expressing vector were introduced into COS7 cells, which is a cell line negative for HLA, using Lipofectamine 2000 (Invitrogen). On the day after gene introduction, COS7 cells were detached and harvested using versene (Invitrogen), and used as the target cell for confirmation of IFN-gamma production (5×10^4 cells/well).
IFN-gamma production of the FOXM1-A01-10-566 (SEQ ID NO: 56)-specific CTL clone against target cells expressing FOXM1 and HLA-A*01:01 was investigated. COS7 cells expressing both FOXM1 and HLA-A*01:01 were prepared as the target cell. COS7 cells expressing either one of FOXM1 and HLA-A*01:01 were prepared as the negative control cell. […] This clearly proves that FOXM1-A01-10-566 (SEQ ID NO: 56) is a peptide generated by antigen processing, and is presented on the cell surface with the HLA-A*01:01 molecule and recognized by CTLs.

SSDPASOLSY (SSDPASQLSY; a peptide derived from FOXM1) [SEQ ID NO: 56]
IFN-gamma production by the CTL line (ELISA) [1]: observed; also recorded: CTL line that produce IFN-gamma in a peptide-specific manner was established
peptide-specific IFN-gamma production of CTL clone (ELISA) [2]: showed a peptide-specific IFN-gamma production
IFN-gamma production of peptide-specific CTL clone ([3]; COS7 cells expressing both FOXM1 and HLA-A*01:01): showed IFN-gamma production
IFN-gamma production of peptide-specific CTL clone ([3]; negative control: COS7 cells expressing either one of FOXM1 and HLA-A*01:01, listed as FOXM1-A01-10-566): a significant IFN-gamma production was not observed; also recorded: a significant IFN-gamma production was not shown
